# Laboratory results taken from ChEMBL document CHEMBL1201862, “PubChem BioAssay data set” (2004).
# The source made the active and inactive calls.
# How the values were obtained:
# [1] = target: T1, DNA repair protein RAD52 homolog (Homo sapiens, UniProt P43351); type: functional, biochemical
# T1 sequence (P43351 whole entry): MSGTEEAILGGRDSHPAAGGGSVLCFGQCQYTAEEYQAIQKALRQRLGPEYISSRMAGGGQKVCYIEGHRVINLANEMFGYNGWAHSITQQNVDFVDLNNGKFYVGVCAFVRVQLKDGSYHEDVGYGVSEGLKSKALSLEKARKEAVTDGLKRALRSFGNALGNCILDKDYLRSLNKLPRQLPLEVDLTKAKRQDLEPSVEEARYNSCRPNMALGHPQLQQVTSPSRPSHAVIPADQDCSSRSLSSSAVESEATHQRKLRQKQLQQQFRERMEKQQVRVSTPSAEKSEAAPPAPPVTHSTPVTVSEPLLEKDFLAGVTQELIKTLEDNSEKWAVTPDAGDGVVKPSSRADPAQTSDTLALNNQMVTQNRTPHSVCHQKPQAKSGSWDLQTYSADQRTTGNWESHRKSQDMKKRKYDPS
# [2] = microbe, parasite or virus in culture; type: functional; conditions: Mycobacterium tuberculosis
# [3] = Luminescence Cell-Based Dose Retest to Confirm Inhibitors of Cancer Stem Cells. [Related pubchem assays (depositor defined):AID2717, AID2721]; type: functional; conditions: Homo sapiens
# Leucine aminopeptidase = target: T2, Leucine aminopeptidase (Plasmodium falciparum 3D7, UniProt Q8IL11); assay: P. falciparum M17LAP inhibitors, primary screen, biochemical, fluorogenic H-Leu-NHMec substrate, 1536-well (AID 1619); type: functional
# T2 sequence (Q8IL11 whole entry): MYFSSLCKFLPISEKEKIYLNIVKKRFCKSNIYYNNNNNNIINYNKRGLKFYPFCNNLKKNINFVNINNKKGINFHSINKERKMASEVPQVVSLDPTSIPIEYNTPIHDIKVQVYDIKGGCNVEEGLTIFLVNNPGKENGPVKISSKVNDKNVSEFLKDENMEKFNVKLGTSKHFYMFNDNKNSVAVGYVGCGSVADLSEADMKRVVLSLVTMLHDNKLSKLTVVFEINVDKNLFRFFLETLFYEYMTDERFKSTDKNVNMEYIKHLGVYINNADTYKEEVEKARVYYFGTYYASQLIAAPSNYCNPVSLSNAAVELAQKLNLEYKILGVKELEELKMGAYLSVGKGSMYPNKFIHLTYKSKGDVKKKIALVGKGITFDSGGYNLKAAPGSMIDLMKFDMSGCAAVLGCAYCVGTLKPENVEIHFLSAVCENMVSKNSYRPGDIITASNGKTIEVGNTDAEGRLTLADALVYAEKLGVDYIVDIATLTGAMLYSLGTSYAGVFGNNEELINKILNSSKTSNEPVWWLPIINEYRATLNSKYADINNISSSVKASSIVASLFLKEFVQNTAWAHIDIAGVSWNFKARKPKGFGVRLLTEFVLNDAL
# cells [4] = type: functional, cell-based
# cells [5] = type: functional, cell-based; remark: listed apart in the source
# [6] = target: T3, Calpain-2 catalytic subunit (Sus scrofa, UniProt P43367); assay: pig calpain II inhibitor potency, dose response, biochemical, fluorogenic peptide substrate (AID 1420); type: functional
# T3 sequence (P43367 whole entry): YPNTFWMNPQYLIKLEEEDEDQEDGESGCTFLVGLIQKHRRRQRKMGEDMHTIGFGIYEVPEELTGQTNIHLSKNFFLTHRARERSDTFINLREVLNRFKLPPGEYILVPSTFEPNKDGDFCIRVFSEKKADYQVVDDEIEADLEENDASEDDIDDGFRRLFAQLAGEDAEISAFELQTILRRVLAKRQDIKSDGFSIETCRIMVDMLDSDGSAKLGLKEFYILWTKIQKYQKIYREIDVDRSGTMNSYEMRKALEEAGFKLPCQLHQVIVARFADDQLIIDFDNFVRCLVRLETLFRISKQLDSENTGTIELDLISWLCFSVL
# [7] = NIH-3T3 fibroblast cytotoxicity, dose response, cytotoxicity control, cell-based, fluorescence, Alamar Blue, secondary assay (AID 2327); type: functional;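 further: NIH-3T3 mouse fibroblasts cultured with fluconazole at 8 µg/mL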
# [8] = C. albicans growth with fluconazole, confirmation, fluorescence, retest (AID 2467); type: functional, cell-based
# [9] = inhibitors of SNCA 5'UTR-driven reporter translation, confirmation, H4 neuroglioma cells, luminescence (AID 1988); type: functional, cell-based
# [10] = cytotoxicity toward DRD oncogenic fibroblasts, dose response, cell-based, non-viral oncogenic, luminescence (AID 1934); type: functional; conditions: Homo sapiens
# BJ [11] = assay: cells; type: functional, cell-based; conditions: Homo sapiens
# [12] = Luminescence Cell-Based Dose Response HTS to Identify Inhibitors of 5'UTR Stem-Loop Driven Prion Protein mRNA Translation in H4 Neuroglioblastoma Cells. [Related pubchem assays: 1827 (Project Summary), 1813 (Primary HTS)]; type: functional
# BJ [13] = assay: cytotoxicity toward BJ-TERT fibroblasts, dose response, cell-based, RAS-independent, luminescence (AID 1933); type: functional; conditions: Homo sapiens
# BJ [14] = assay: cytotoxicity toward BJ-TERT-LT-ST fibroblasts, dose response, cell-based, RAS-independent, luminescence (AID 1935); type: functional; conditions: Homo sapiens;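 further: BJ fibroblasts immortalized with TERT plus LT and ST oncogenes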
# [15] = inhibitors of firefly luciferase expression or activity, dose response, H4 neuroglioma cells, luminescence (AID 1990); type: functional, cell-based
# [16] = A cytotoxicity screen of small molecule inhibitors of the PhoP region in Salmonella typhi identified in the primary screen. [Related pubchem assays: 1850, 1864, 1985 ]; type: functional
# Fatty acid synthase [17] = target: T4, Fatty acid synthase (Homo sapiens, UniProt P49327); assay: FAS thioesterase domain inhibitors, dose response, biochemical, endpoint fluorescence intensity, uHTS hits (AID 624327); type: functional;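 further: fluorescence from hydrolysis of an O-methyl fluorescein acyl ester substrate by the enzyme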
# T4 sequence (P49327 whole entry, the tested form may be a part): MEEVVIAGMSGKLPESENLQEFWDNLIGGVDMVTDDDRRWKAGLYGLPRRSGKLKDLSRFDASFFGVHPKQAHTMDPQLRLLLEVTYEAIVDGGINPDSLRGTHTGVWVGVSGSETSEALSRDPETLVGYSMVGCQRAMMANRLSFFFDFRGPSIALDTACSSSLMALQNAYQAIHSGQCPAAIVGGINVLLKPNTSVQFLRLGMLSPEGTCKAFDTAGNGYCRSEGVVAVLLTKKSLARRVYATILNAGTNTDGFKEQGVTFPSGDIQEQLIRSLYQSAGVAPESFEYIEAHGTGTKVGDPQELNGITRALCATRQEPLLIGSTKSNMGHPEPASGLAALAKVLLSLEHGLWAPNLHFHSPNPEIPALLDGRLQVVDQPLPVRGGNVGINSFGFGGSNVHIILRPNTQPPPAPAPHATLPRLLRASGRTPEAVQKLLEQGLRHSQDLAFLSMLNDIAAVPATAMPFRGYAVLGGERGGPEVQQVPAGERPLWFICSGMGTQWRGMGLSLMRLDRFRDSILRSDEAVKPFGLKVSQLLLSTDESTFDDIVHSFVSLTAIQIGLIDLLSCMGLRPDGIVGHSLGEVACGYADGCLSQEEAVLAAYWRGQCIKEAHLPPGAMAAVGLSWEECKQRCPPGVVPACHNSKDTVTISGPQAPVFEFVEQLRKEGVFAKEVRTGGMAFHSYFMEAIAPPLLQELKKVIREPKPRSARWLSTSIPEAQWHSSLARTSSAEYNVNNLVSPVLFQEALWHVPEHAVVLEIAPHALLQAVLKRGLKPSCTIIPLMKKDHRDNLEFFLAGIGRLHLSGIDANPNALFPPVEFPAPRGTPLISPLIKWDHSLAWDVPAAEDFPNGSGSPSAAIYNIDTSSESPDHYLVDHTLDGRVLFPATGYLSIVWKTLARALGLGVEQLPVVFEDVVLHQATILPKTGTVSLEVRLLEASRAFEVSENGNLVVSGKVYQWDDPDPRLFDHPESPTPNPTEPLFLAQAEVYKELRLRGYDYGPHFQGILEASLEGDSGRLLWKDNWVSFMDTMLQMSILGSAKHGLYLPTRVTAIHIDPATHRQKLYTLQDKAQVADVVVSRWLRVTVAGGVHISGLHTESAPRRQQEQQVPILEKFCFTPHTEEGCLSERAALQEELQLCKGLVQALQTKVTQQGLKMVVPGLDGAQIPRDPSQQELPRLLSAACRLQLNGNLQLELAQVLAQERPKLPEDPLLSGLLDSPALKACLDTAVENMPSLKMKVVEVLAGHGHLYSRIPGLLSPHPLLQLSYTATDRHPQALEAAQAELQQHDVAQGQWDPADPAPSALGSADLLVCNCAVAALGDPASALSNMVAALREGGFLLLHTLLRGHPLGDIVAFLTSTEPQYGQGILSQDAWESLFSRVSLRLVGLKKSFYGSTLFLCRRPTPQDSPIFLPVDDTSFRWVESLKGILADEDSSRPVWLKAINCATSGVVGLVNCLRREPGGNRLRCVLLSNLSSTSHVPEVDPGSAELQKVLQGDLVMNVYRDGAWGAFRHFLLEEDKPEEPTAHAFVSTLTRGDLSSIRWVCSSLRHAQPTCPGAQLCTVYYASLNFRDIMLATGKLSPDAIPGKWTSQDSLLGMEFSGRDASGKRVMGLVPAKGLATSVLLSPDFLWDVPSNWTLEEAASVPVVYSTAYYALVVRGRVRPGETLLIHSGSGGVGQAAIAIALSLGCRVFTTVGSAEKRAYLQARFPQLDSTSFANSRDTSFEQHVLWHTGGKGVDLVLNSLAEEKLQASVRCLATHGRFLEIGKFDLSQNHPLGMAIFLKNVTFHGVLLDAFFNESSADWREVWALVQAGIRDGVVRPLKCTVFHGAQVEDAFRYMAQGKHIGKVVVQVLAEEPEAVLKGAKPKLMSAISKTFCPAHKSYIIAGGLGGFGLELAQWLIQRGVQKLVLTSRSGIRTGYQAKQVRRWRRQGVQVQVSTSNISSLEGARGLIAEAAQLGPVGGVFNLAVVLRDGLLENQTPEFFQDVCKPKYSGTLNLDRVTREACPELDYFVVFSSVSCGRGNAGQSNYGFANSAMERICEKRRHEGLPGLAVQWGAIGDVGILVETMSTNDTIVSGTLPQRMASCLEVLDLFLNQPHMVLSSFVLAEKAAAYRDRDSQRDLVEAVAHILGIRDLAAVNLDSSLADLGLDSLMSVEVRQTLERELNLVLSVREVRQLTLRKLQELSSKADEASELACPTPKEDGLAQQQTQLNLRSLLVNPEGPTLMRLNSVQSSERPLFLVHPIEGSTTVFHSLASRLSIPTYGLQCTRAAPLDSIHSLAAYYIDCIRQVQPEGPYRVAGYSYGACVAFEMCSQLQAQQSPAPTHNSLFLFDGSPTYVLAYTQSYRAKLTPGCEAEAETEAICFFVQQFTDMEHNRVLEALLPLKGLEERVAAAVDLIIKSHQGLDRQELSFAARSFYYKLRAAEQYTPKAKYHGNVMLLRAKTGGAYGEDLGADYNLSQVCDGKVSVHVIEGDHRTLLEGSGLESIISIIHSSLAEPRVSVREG
# Fatty acid synthase [18] = target: T4, Fatty acid synthase; assay: FAS thioesterase domain inhibitors, dose response, biochemical, kinetic fluorescence intensity (AID 624326); type: functional;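 further: rate of fluorescence rise from hydrolysis of a fluorogenic O-methyl fluorescein ester substrate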
# [19] = system: Streptococcus sp. 'group A'; assay: growth inhibition of control SK(-) GAS strain, dose response, counter-screen for streptokinase expression inhibitor project, luminescence, kanamycin, BacTiterGlo, confirmation (AID 1900); type: functional, organism-based
# Streptococcus = assay: Group A Streptococcus viability loss, dose response, counter-screen for streptokinase expression inhibitor project, luminescence, BacTiterGlo (AID 1915); type: functional, organism-based;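 further: potency for reduction of bacterial viability or growth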
# [20] = target: Induced myeloid leukemia cell differentiation protein Mcl-1 (Homo sapiens, UniProt Q07820); type: functional
# Chain of Induced myeloid leukemia cell differentiation protein Mcl-1 (Q07820 whole entry): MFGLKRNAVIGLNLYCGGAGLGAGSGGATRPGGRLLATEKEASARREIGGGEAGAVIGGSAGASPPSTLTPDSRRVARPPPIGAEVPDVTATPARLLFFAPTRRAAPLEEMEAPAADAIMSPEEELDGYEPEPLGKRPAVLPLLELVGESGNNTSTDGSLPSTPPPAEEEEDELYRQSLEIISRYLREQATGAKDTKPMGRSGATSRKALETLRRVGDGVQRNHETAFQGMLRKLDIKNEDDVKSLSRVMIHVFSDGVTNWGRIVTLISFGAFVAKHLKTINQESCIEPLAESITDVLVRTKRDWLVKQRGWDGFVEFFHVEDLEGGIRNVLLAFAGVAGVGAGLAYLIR
smiles,measurement,setting,value
COc1ccccc1C1c2ccc3ccccc3c2Oc2ncn(CCN(C)C)c(=N)c21 (stereo not drawn),AC50,[1],20.6 µM (active)
same,CC50,[2],5.8 µM (active)
same,AC50,[3],2.72 µM (active)
O=C(CN1C(=O)S/C(=C/C=C/c2ccccc2)C1=O)Nc1ccc(C(=O)O)cc1,IC50,Leucine aminopeptidase,24.5 µM (active)
CCCCCC(=O)NNC(=S)NC(=O)c1cccc([N+](=O)[O-])c1,IC50,Leucine aminopeptidase,24.4 µM (active)
same,EC50,cells [4],> 350 µM (not active)
same,EC50,cells [5],> 350 µM (not active)
CCN(CC)CCNc1nc(-c2cccs2)c(CC(=O)O)s1,AC50,[1],14 µM (active)
CSCCC(NC(=O)c1c(C)oc2c1CCCC2)C(=O)O (stereo not drawn),IC50,Leucine aminopeptidase,35.9 µM (active)
O=C(CSc1cccc[n+]1[O-])c1cc(Cl)ccc1Cl,IC50,[6],> 50 µM (not active)
same,EC50,[7],35.8 µM (active)
same,EC50,[8],> 38 µM (not active)
CC1Cc2ccccc2N1C(=O)COC(=O)C1(c2ccccc2F)CCCC1 (stereo not drawn),IC50,[6],7.23 µM (not active)
CCOc1c(Br)cc(CNc2ccc3c(c2)OCCO3)cc1OC,EC50,[9],0.31 µM (active)
same,EC50,[10],1.29 µM (active)
same,EC50,BJ [11],17.7 µM (active)
same,EC50,[12],3.63 µM (active)
same,EC50,BJ [13],2.12 µM (active)
same,EC50,BJ [14],1.41 µM (inconclusive)
same,EC50,[15],4.32 µM (active)
Cc1cccc(NS(=O)(=O)c2ccc3c(c2)OCCO3)c1,EC50,[16],> 50 µM (active)
Cc1c(OCC(=O)NC(Cc2ccc(Cl)cc2)C(=O)O)ccc2c(-c3ccccc3)cc(=O)oc12 (stereo not drawn),IC50,Fatty acid synthase [17],6.45 µM (active)
same,IC50,Fatty acid synthase [18],13.3 µM (active)
CCN1CCN(CCCNC(=O)C2CCN(c3nnc(-n4c(C)ccc4C)s3)CC2)CC1,AC50,[1],9.22 µM (active)
NC1(C(=O)O)CCCc2ccc(N(CCCl)CCCl)cc21 (stereo not drawn),AC50,[1],16 µM (active)
O=C(O)c1ccc(N/N=C/c2ccc(-c3ccc(Cl)cc3Cl)o2)cc1,EC50,[19],1.46 µM (active)
same,IC50,Fatty acid synthase [17],7.07 µM (active)
same,IC50,Fatty acid synthase [18],3.65 µM (active)
same,EC50,Streptococcus,2.33 µM (active)
same,IC50,[20],3.56 µM (active)
O=C(N/N=C/c1ccc(N2CCCC2)c([N+](=O)[O-])c1)c1cccnc1,EC50,[16],> 50 µM (active)
O=C(Cn1cc(/C=N/O)c2ccccc21)N1CCOCC1,IC50,Leucine aminopeptidase,78.9 µM (active)
CCOC(=O)[C@H]1O[C@@H]1C(=O)N[C@@H](CC(C)C)C(=O)NCCC(C)C [ALOXISTATIN],IC50,[6],1.77 µM (active)
